According to US10538535B2, “Antitumoral compounds” (priority 2017, dated 2020):
Read-outs that look alike come from different tables or passages of the source.

What was measured:
Test in all cases: cells
A549 cells = conditions: for CC50: read-out: LC50; for IC (TGI): read-out: TGI
Text: (§1) The aim of this assay is to evaluate the in vitro cytostatic (ability to delay or arrest tumor cell growth) or cytotoxic (ability to kill tumor cells) activity of the samples being tested.
(§2) A colorimetric assay, using sulforhodamine B (SRB) reaction has been adapted to provide a quantitative measurement of cell growth and viability (following the technique described by Skehan et al. J. Natl. Cancer Inst. 1990, 82, 1107-1112). Another colorimetric assay based on 3-(4,5-Dimethylthiazol-2-yl)-2,5-diphenyltetrazolium bromide (MTT) reduction to a purple formazan has been also used to assess the antiproliferative activity (following the technique described by Mosmann et al. J. Immunol. Meth. 1983, 65, 55-63).
(§3) These forms of assays employ 96-well cell culture microplates following the standards of the American National Standards Institute and the Society for Laboratory Automation and Screening (ANSI SLAS 1-2004 (R2012) Oct. 12, 2011. All the cell lines used in this study were obtained from the American Type Culture Collection (ATCC) and derive from different types of human cancer.
(§4) A549, HT29, MDA-MB-231 and PSN1 cells were maintained in Dulbecco's Modified Eagle Medium (DMEM) while PC-3 and 22Rv1 cells were maintained in Roswell Park Memorial Institute Medium (RPMI). All cell lines were supplemented with 10% Fetal Bovine Serum (FBS), 2 mM L-glutamine, 100 U/mL penicillin, and 100 […] at 37° C., 5% CO2 and 98% humidity. For the experiments, cells were harvested from subconfluent cultures using trypsinization and resuspended in fresh medium before counting and plating.
(§5) A549, HT29, MDA-MB-231 and PSN1 cells were seeded in 96 well microtiter plates, at 5000 cells per well in aliquots of 150 μL, and allowed to attach to the plate surface for 18 hours (overnight) in drug free medium. After that, one control (untreated) plate of each cell line was fixed (as described below) and used for time zero reference value. Culture plates were then treated with test compounds (50 μL aliquots of 4× stock solutions in complete culture medium plus 4% DMSO) using ten 2/5 serial dilutions (concentrations ranging from 10 to 0.003 μg/mL) and triplicate cultures (1% final concentration in DMSO). After 72 hours treatment, the antitumor effect was measured by using the SRB methodology: Briefly, cells were washed twice with PBS, fixed for 15 min in 1% glutaraldehyde solution at room temperature, rinsed twice in PBS, and stained in 0.4% SRB solution for 30 min at room temperature. Cells were then rinsed several times with 1% acetic acid solution and air-dried at room temperature.
(§6) Effects on cell growth and survival were estimated by applying the NCI algorithm (Boyd M R and Paull K D. Drug Dev. Res. 1995, 34, 91-104). The values obtained in triplicate cultures were fitted by nonlinear regression to a four-parameters logistic curve by nonlinear regression analysis.

HT29 cells = conditions: for CC50: read-out: LC50; for IC (TGI): read-out: TGI
Text: as §1, §2, §3, §4, §5, §6

MDA-MB-231 cells = conditions: for GI50 / CC50 / IC (TGI): Homo sapiens, MDA-MB-231, 72 h; for CC50: read-out: LC50; for IC (TGI): read-out: TGI
Text: as §1, §2, §3, §4, §5, §6

PSN1 cells = conditions: Homo sapiens, PSN1, 72 h; for CC50: read-out: LC50; for IC (TGI): read-out: TGI
Text: as §1, §2, §3, §4, §5, §6

SMILES | CC50 (A549 cells; Homo sapiens, A549, 72 h) [nM] | CC50 (HT29 cells; Homo sapiens, HT-29, 72 h) [nM] | IC (TGI) (HT29 cells; Homo sapiens, HT-29, 72 h) [nM] | CC50 (PSN1 cells) [nM] | IC (TGI) (PSN1 cells) [nM] | further results
COc1c(C)cc2c(c1O)[C@@H]1[C@@H]3[C@@H]4SC[C@]5(N[C@H](C)Cc6c5[nH]c5ccccc65)C(=O)OC[C@@H](c5c6c(c(C)c(OC(C)=O)c54)OCO6)N3[C@@H](C#N)[C@H](C2)N1C [A] | > 129 | > 129 | 8.36 | 19.3 | 15.4 | GI50 (A549 cells; Homo sapiens, A549, 72 h): 8.36 nM; IC (TGI) (A549 cells; Homo sapiens, A549, 72 h): 8.87 nM; GI50 (HT29 cells; Homo sapiens, HT-29, 72 h): 7.71 nM; GI50 (MDA-MB-231 cells): 7.07 nM; CC50 (MDA-MB-231 cells): 14.1 nM; IC (TGI) (MDA-MB-231 cells): 9.38 nM; GI50 (PSN1 cells): 12.9 nM
COc1c(C)cc2c(c1O)[C@@H]1[C@@H]3[C@@H]4SC[C@]5(N[C@@H](C)Cc6c5[nH]c5ccccc65)C(=O)OC[C@@H](c5c6c(c(C)c(OC(C)=O)c54)OCO6)N3[C@@H](C#N)[C@H](C2)N1C [B] | > 129 | > 129 | 9.13 | 23.1 | 20.6 | GI50 (A549 cells; Homo sapiens, A549, 72 h): 20.6 nM; IC (TGI) (A549 cells; Homo sapiens, A549, 72 h): 21.9 nM; GI50 (HT29 cells; Homo sapiens, HT-29, 72 h): 8.48 nM; GI50 (MDA-MB-231 cells): 9 nM; CC50 (MDA-MB-231 cells): 34.7 nM; IC (TGI) (MDA-MB-231 cells): 16.7 nM; GI50 (PSN1 cells): 19.3 nM
COc1c(C)cc2c(c1O)[C@@H]1[C@@H]3[C@@H]4SC[C@]5(N[C@@H](CO)Cc6c5[nH]c5ccccc65)C(=O)OC[C@@H](c5c6c(c(C)c(OC(C)=O)c54)OCO6)N3[C@@H](C#N)[C@H](C2)N1C [Compound 3-R] | > 126 | > 126 | > 126 | > 126 | 0.605 | IC (TGI) (A549 cells; Homo sapiens, A549, 72 h): 0.579 nM; CC50 (MDA-MB-231 cells): 1.25 nM; IC (TGI) (MDA-MB-231 cells): 0.504 nM; GI50 (PSN1 cells; PSN1, 72 hours treatment, SRB): 0.39 nM
COc1c(C)cc2c(c1O)[C@@H]1[C@@H]3[C@@H]4SC[C@]5(N[C@H](COC(C)=O)Cc6c5[nH]c5ccccc65)C(=O)OC[C@@H](c5c6c(c(C)c(OC(C)=O)c54)OCO6)N3[C@@H](C#N)[C@H](C2)N1C [Compound 3a-S] | > 120 | > 120 | 3.23 | 12 | 3.59 | GI50 (A549 cells; Homo sapiens, A549, 72 h): 3.11 nM; IC (TGI) (A549 cells; Homo sapiens, A549, 72 h): 3.23 nM; GI50 (HT29 cells; Homo sapiens, HT-29, 72 h): 2.99 nM; GI50 (MDA-MB-231 cells): 2.87 nM; CC50 (MDA-MB-231 cells): 4.9 nM; IC (TGI) (MDA-MB-231 cells): 3.59 nM; GI50 (PSN1 cells; PSN1, 72 hours treatment, SRB): 2.15 nM
COc1c(C)cc2c(c1O)[C@@H]1[C@@H]3[C@@H]4SC[C@]5(N[C@H](COC(C)=O)Cc6c5[nH]c5ccccc65)C(=O)OC[C@@H](c5c6c(c(C)c(OC(C)=O)c54)OCO6)N3[C@@H](O)[C@H](C2)N1C [Compound 4a-S] | > 121 | > 121 |  |  |  | 
C=CCOC(=O)NC[C@H]1Cc2c([nH]c3ccccc23)[C@@]2(CS[C@@H]3c4c(OC(C)=O)c(C)c5c(c4[C@H](COC2=O)N2[C@@H]3[C@H]3c4c(cc(C)c(OC)c4O)C[C@@H]([C@@H]2C#N)N3C)OCO5)N1 [Compound 10-R] | > 114 | > 114 | > 114 |  |  | 
C=CCOC(=O)NC[C@@H]1Cc2c([nH]c3ccccc23)[C@@]2(CS[C@@H]3c4c(OC(C)=O)c(C)c5c(c4[C@H](COC2=O)N2[C@@H]3[C@H]3c4c(cc(C)c(OC)c4O)C[C@@H]([C@@H]2C#N)N3C)OCO5)N1 [Compound 10-S] |  | > 1140 |  |  |  | 
COc1c(C)cc2c(c1O)[C@@H]1[C@@H]3[C@@H]4SC[C@]5(N[C@@H](CN)Cc6c5[nH]c5ccccc65)C(=O)OC[C@@H](c5c6c(c(C)c(OC(C)=O)c54)OCO6)N3[C@@H](C#N)[C@H](C2)N1C [Compound 11-R] | > 126 | > 126 | > 126 | > 126 | 1.89 | GI50 (A549 cells; Homo sapiens, A549, 72 h): 1.77 nM; GI50 (HT29 cells; Homo sapiens, HT-29, 72 h): 1.39 nM; GI50 (PSN1 cells; PSN1, 72 hours treatment, SRB): 1.39 nM
COc1c(C)cc2c(c1O)[C@@H]1[C@@H]3[C@@H]4SC[C@]5(N[C@H](CN)Cc6c5[nH]c5ccccc65)C(=O)OC[C@@H](c5c6c(c(C)c(OC(C)=O)c54)OCO6)N3[C@@H](C#N)[C@H](C2)N1C [Compound 11-S] | > 126 | > 126 | > 126 |  |  | 
C=CCOC(=O)NC[C@H]1Cc2c([nH]c3ccccc23)[C@@]2(CS[C@@H]3c4c(OC(C)=O)c(C)c5c(c4[C@H](COC2=O)N2[C@@H]3[C@H]3c4c(cc(C)c(OC)c4O)C[C@@H]([C@@H]2O)N3C)OCO5)N1 [Compound 13-R] | > 115 | > 115 |  |  |  | 
C=CCOC(=O)NC[C@@H]1Cc2c([nH]c3ccccc23)[C@@]2(CS[C@@H]3c4c(OC(C)=O)c(C)c5c(c4[C@H](COC2=O)N2[C@@H]3[C@H]3c4c(cc(C)c(OC)c4O)C[C@@H]([C@@H]2O)N3C)OCO5)N1 [Compound 13-S] |  | > 1150 |  |  |  | 
COc1c(C)cc2c(c1O)[C@@H]1[C@@H]3[C@@H]4SC[C@]5(N[C@H](C(=O)O)Cc6c5[nH]c5ccccc65)C(=O)OC[C@@H](c5c6c(c(C)c(OC(C)=O)c54)OCO6)N3[C@@H](C#N)[C@H](C2)N1C [Compound 14-S] | > 124 | > 124 | > 124 | > 124 | > 124 | GI50 (A549 cells; Homo sapiens, A549, 72 h): > 124 nM; IC (TGI) (A549 cells; Homo sapiens, A549, 72 h): > 124 nM; GI50 (HT29 cells; Homo sapiens, HT-29, 72 h): 121 nM; GI50 (MDA-MB-231 cells): 54.5 nM; CC50 (MDA-MB-231 cells): > 124 nM; IC (TGI) (MDA-MB-231 cells): 113 nM; GI50 (PSN1 cells): > 124 nM
COc1c(C)cc2c(c1O)[C@@H]1[C@@H]3[C@@H]4SC[C@]5(N[C@@H](CO)Cc6c5oc5ccccc65)C(=O)OC[C@@H](c5c6c(c(C)c(OC(C)=O)c54)OCO6)N3[C@@H](O)[C@H](C2)N1C [Compound 39-R] | > 127 | > 127 |  |  |  | 
C=CCOC(=O)NC[C@H]1Cc2c(oc3ccccc23)[C@@]2(CS[C@@H]3c4c(OC(C)=O)c(C)c5c(c4[C@H](COC2=O)N2[C@@H]3[C@H]3c4c(cc(C)c(OC)c4O)C[C@@H]([C@@H]2C#N)N3C)OCO5)N1 [Compound 45-R] |  | > 114 |  |  |  | 
C=CCOC(=O)NC[C@@H]1Cc2c(oc3ccccc23)[C@@]2(CS[C@@H]3c4c(OC(C)=O)c(C)c5c(c4[C@H](COC2=O)N2[C@@H]3[C@H]3c4c(cc(C)c(OC)c4O)C[C@@H]([C@@H]2C#N)N3C)OCO5)N1 [Compound 45-S] |  | > 114 |  |  |  | 
COc1c(C)cc2c(c1O)[C@@H]1[C@@H]3[C@@H]4SC[C@]5(N[C@@H](CN)Cc6c5oc5ccccc65)C(=O)OC[C@@H](c5c6c(c(C)c(OC(C)=O)c54)OCO6)N3[C@@H](C#N)[C@H](C2)N1C [Compound 46-R] |  |  |  |  |  | TGI (A549 cells; A549, 72 hours treatment, SRB): 2.77E−09 Molar; CC50 (A549 cells; A549, 72 hours treatment, SRB): > 126 nM; TGI (HT29 cells; HT29, 72 hours treatment, SRB): 1.39E−09 Molar; CC50 (HT29 cells; HT29, 72 hours treatment, SRB): > 126 nM; TGI (MDA-MB-231 cells; MDA-MB-231, 72 hours treatment, SRB): 1.39E−09 Molar
COc1c(C)cc2c(c1O)[C@@H]1[C@@H]3[C@@H]4SC[C@]5(N[C@H](CN)Cc6c5oc5ccccc65)C(=O)OC[C@@H](c5c6c(c(C)c(OC(C)=O)c54)OCO6)N3[C@@H](C#N)[C@H](C2)N1C [Compound 46-S] | > 126 | > 126 |  |  |  | 
